Test results reported in patent US20160169896A1, “Methods for Predicting and Treating Bone Metastases in Prostate Cancer Patients” (INSERM (institut NAtional de la Sante et de la Recherche …, priority 2012, published 2016).

Tested on: PC3 cells
Test: Real-time PCR of factor expression in PC3 cells treated with the ERRα inverse agonist XCT790 versus DMSO
Format: cell-based, human
Conditions: XCT790 5 10^−7M, 24 hours, compared to DMSO control
Description: PC3 cell line was obtained from the American Type Culture Collection (ATCC, Manassas, Va., USA). PC3 cells are routinely cultured in F12K nutrient mixture and DMEM medium (Gibco/Invitrogen; Carlsbad, Calif., USA) respectively supplemented with 10% (v/v) fetal bovine serum (FBS; Perbio/Thermo scientific; Rockford, Ill., USA) and 1% (v/v) penicillin/streptomycin (Invitrogen; Carlsbad, Calif., USA) at 37° C. in a 5% CO2 incubator.
Human ERRα cDNA (WT) was obtained from mRNA extracted from BO2-FRT cells, by using RT-PCR with specific primers ((NM_004451.3) (Fradet et al, 2011). Amplimers were sequenced for verification. The pcDNA5/ERRα-WT (WT) and empty pcDNA5 (used as control (CT)) constructs were transfected using Transfast (Promega). For clonal selection, cells were cultured for 4 weeks in the presence of puromycin (1 μg/ml PC3) (Invitrogen). XCT790, an inverse agonist of ERRα was tested in vitro on PC3 cells at 5.10^−7M compare to DMSO for 24 h.
Total RNA was extracted with Trizol reagent (Sigma) from PC3 cells, PC3 tumors, MC3T3-E1 cells. Samples of total RNA (2 μg) were reverse-transcribed using random hexamer (Promega) and the first strand synthesis kit of Superscript™ II (Invitrogen). Real-time RT-PCR was performed on a Roche Lightcycler Module (Roche) with primers specific for human and mouse. Real-time RT-PCR was carried out by using (SYBR Green; Qiagen,) on the LightCycler system on (Roche) according to the manufacturer's instructions with an initial step for 10 min at 95° C. followed by 40 cycles of 20 sec at 95° C., 10 sec at Tm (see Tables 1-2) and 10 sec at 72° C. We verified that a single peak was obtained for each product using the Roche software. Amplimers were all normalized to corresponding L32 values. Data analysis was carried out using the comparative Ct method: in real-time each replicate average genes CT was normalized to the average CT of L32 by subtracting the average CT of L32 from each replicate to give the ACT. Results are expressed as Log^-2 ΔΔCT with ΔΔCT equivalent to the ΔCT of the genes in PC3 (clone, XCT), tumors or treated MC3T3-E1 subtracting to the ACT of the endogenous control (empty vectors control for clones or tumors, DMSO for the XCT experiment and empty vectors control conditioned media treated MC3T3-E1 respectively).
To confirm the regulation of the factors identified in PC3 over-expressing ERRα, we treat PC3 cells by the inverse agonist XCT790 (5 10^−7M) for 24 hours. XCT790 is able to block the interaction between ERRα and his co-activators PGC1a and b that will have as a consequence the inhibition of ERRα transcriptional activity.

SMILES: COc1cc(/C=C(\C#N)C(=O)Nc2nnc(C(F)(F)F)s2)ccc1OCc1ccc(C(F)(F)F)cc1C(F)(F)F [XCT790, (2E)-3-(4-{[2,4-bis(trifluoromethyl)benzyl]oxy}-3-methoxyphenyl)-2-cyano-N-[5-(trifluoromethyl)-1,3,4-thiadiazol-2-yl]acrylamide]
- CK (cathepsin K) expression (real-time PCR): no CK were found statistically down-regulated
- ET1 expression (real-time PCR): identified as direct ERRα/PGC1 target genes
- MCP1 expression (real-time PCR): statistically down-regulated
- OPG expression (real-time PCR): statistically down-regulated
- Runx2 expression (real-time PCR): statistically down-regulated
- Wnt3a expression (real-time PCR): identified as direct ERRα/PGC1 target genes
- Wnt5a expression (real-time PCR): identified as direct ERRα/PGC1 target genes
